Experimental data from ChEMBL document CHEMBL5370672, “Discovery of Orally Bioavailable Phthalazinone Analogues as an ENPP1 Inhibitor for STING-Mediated Cancer Immunotherapy” (J Med Chem, 2023).
Activity calls are given as the source filed them. The calls are words filed in the database; no cut-off is given here.

Key:
[1] = target: T1, Ectonucleotide pyrophosphatase/phosphodiesterase family member 1 (Homo sapiens, UniProt P22413); test: Inhibition of recombinant human ENPP1 using cGAMP as substrate assessed as inhibition of cGAMP hydrolysis preincubated for 5 to 10 mins followed by substrate addition and measured after 90 mins by AMP-Glo reagent based luminescence plate reader analysis
T1 sequence (P22413 whole entry): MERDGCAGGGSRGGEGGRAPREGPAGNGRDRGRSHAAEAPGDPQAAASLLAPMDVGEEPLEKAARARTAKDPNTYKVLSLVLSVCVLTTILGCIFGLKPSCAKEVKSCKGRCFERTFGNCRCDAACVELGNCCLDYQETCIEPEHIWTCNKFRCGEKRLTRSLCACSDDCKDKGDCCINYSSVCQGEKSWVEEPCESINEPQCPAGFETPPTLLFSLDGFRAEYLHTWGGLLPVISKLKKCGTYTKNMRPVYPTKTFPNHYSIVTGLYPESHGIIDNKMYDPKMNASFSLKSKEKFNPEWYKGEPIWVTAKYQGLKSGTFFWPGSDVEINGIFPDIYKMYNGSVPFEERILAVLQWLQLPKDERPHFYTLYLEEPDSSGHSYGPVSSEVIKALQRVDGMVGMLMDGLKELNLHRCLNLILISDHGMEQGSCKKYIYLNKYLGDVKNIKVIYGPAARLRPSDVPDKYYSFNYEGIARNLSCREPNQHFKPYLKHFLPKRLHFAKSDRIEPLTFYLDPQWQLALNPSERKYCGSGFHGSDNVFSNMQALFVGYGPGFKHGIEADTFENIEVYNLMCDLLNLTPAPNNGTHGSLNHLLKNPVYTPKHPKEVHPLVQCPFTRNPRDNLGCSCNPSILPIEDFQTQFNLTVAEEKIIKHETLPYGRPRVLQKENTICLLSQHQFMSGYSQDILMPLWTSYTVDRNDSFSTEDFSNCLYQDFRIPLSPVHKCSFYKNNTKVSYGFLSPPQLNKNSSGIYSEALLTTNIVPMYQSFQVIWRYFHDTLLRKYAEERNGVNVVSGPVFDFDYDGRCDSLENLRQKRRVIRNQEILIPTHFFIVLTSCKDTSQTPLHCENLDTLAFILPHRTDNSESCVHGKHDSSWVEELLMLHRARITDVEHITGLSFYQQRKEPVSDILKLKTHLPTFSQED

[2] = Tmax in BALB/c mouse at 20 mg/kg, po measured after 24 hrs by LC-MS/MS analysis; assay type: ADME, organism-based; conditions: in vivo
[3] = Cmax in BALB/c mouse at 20 mg/kg, po measured after 24 hrs by LC-MS/MS analysis; assay type: ADME, organism-based; set-up: dose 20 mg/kg, time 24 hrs, route po; conditions: in vivo
[4] = AUC (0 to infinity) in BALB/c mouse at 20 mg/kg, po measured after 24 hrs by LC-MS/MS analysis; assay type: ADME, organism-based; set-up: time 24 hrs, dose 20 mg/kg, route po; conditions: in vivo
[5] = MRT (0 to t) in BALB/c mouse at 20 mg/kg, po measured after 24 hrs by LC-MS/MS analysis; assay type: ADME, organism-based; conditions: in vivo
[6] = MRT (0 to infinity) in BALB/c mouse at 20 mg/kg, po measured after 24 hrs by LC-MS/MS analysis; assay type: ADME, organism-based; conditions: in vivo
[7] = Oral bioavailability in BALB/c mouse at 20 mg/kg measured after 24 hrs by LC-MS/MS analysis; assay type: ADME, organism-based; conditions: in vivo
[8] = Half-life in BALB/c mouse at 5 mg/kg, iv measured after 24 hrs by LC-MS/MS analysis; assay type: ADME, organism-based; conditions: in vivo
[9] = Tmax in BALB/c mouse at 5 mg/kg, iv measured after 24 hrs by LC-MS/MS analysis; assay type: ADME, organism-based; conditions: in vivo
[10] = AUC (0 to infinity) in BALB/c mouse at 5 mg/kg, iv measured after 24 hrs by LC-MS/MS analysis; assay type: ADME, organism-based; set-up: dose 5 mg/kg, time 24 hrs, route iv; conditions: in vivo
[11] = Volume of distribution at steady state in BALB/c mouse at 5 mg/kg, iv measured after 24 hrs by LC-MS/MS analysis; assay type: ADME, organism-based; conditions: in vivo, read-out: Vdss
[12] = Clearance in BALB/c mouse at 5 mg/kg, iv measured after 24 hrs by LC-MS/MS analysis; assay type: ADME, organism-based; conditions: in vivo
[13] = Protein binding in mouse plasma assessed as unbound fraction by equilibrium dialysis based LC-MS/MS analysis; assay type: ADME, cell-free
[14] = Metabolic stability in human liver microsome assessed as half-life by LC/MS analysis; assay type: ADME; conditions: liver microsomes
[15] = Metabolic stability in human liver microsome assessed as intrinsic clearance by LC/MS analysis; assay type: ADME; conditions: liver microsomes, read-out: CLH
[16] = target: Cytochrome P450 2C9 (Homo sapiens, UniProt P11712); test: Inhibition of CYP2C9 in human liver microsomes; assay type: ADME, Microsome
Chain of Cytochrome P450 2C9 (P11712 whole entry): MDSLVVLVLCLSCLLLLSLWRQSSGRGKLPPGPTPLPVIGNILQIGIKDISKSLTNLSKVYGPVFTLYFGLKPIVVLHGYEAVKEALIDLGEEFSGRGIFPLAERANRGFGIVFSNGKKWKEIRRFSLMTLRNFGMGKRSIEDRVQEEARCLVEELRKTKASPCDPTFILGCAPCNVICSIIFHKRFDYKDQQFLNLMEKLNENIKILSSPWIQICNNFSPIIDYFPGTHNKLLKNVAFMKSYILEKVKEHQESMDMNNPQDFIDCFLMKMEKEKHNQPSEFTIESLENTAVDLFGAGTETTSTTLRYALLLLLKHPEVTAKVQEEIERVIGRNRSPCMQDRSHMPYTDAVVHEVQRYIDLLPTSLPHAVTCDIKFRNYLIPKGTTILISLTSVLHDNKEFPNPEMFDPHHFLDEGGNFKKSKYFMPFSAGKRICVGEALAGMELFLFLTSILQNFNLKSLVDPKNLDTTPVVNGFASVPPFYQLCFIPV

[17] = target: Cytochrome P450 2C19 (Homo sapiens, UniProt P33261); test: Inhibition of CYP2C19 in human liver microsomes; assay type: ADME, Microsome
Chain of Cytochrome P450 2C19 (P33261 whole entry): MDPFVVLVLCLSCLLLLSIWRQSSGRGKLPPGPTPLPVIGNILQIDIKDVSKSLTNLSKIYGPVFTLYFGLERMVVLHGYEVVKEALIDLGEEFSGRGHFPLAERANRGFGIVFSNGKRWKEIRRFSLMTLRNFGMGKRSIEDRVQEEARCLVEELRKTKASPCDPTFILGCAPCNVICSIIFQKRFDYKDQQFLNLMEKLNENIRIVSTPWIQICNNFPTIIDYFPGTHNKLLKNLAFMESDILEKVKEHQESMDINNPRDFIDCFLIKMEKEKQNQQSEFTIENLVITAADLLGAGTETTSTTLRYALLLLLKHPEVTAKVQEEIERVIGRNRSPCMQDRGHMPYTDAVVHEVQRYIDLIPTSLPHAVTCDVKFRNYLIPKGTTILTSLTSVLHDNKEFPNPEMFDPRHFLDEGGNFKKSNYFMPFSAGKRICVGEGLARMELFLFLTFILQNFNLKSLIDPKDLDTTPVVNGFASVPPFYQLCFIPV

[18] = target: Cytochrome P450 2D6 (Homo sapiens, UniProt P10635); test: Inhibition of CYP2D6 in human liver microsomes; assay type: ADME, Microsome
Chain of Cytochrome P450 2D6 (P10635 whole entry): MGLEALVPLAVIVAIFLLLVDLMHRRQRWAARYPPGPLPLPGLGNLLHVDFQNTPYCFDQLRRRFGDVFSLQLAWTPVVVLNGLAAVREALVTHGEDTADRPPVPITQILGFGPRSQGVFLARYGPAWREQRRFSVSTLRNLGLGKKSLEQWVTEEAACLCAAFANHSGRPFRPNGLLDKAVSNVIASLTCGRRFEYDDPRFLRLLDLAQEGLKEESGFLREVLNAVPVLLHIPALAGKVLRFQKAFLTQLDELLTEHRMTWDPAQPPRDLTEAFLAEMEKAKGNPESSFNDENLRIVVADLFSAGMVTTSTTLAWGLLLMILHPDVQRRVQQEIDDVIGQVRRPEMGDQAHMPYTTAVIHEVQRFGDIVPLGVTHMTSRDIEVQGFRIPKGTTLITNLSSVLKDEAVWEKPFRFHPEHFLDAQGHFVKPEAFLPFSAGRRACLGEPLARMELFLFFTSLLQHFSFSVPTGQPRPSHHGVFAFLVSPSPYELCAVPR

[19] = target: Cytochrome P450 3A4 (Homo sapiens, UniProt P08684); test: Inhibition of CYP3A4 in human liver microsomes; assay type: ADME, Microsome
Chain of Cytochrome P450 3A4 (P08684 whole entry): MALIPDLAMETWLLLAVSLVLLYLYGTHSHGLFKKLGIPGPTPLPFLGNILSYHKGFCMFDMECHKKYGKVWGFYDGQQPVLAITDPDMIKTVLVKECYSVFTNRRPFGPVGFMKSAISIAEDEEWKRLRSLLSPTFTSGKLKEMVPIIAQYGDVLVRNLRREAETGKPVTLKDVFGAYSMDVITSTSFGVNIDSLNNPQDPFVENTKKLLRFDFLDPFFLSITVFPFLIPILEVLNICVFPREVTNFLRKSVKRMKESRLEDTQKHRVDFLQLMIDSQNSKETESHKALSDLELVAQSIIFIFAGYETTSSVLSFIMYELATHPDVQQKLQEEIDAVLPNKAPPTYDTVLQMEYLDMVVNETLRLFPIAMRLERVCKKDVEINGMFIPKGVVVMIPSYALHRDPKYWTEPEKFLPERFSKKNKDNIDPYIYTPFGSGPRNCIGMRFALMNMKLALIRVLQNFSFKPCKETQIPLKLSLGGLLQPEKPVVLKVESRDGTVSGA

[20] = target: Stimulator of interferon genes protein (Homo sapiens) (UniProt Q86WV6); test: (§1) Activation of STING-mediated immune response in human HCT-116 cells transfected with ISRE reporter assessed as increase in cGAMP-induced ISRE activation by measuring fold change at 25 to 100 uM preincubated with compound for 1 hrs followed by cGAMP addition and measured after 48 hrs by luciferase reporter gene assay; assay type: cell-based; conditions: filed as activator, dose 25-100 µM, time 49.0 hrs
Chain of Stimulator of interferon genes protein (Homo sapiens) (Q86WV6 whole entry): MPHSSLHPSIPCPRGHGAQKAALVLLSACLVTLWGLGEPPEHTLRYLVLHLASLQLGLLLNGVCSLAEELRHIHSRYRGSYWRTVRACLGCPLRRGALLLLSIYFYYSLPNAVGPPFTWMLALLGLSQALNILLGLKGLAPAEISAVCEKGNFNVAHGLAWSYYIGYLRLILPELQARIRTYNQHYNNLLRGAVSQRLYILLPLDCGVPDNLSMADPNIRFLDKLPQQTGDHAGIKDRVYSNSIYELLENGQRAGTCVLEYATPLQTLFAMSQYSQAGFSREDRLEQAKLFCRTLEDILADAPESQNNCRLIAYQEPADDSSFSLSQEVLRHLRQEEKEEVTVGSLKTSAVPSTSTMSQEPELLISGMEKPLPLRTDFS

[21] = target: Stimulator of interferon genes protein (Homo sapiens) (UniProt Q86WV6); test: as §1, with “THP-1” for “HCT-116”, “50” for “100”, “24” for “48”; assay type: cell-based; conditions: filed as activator, dose 25-50 µM, time 25.0 hrs
[22] = target: Stimulator of interferon genes protein (Homo sapiens) (UniProt Q86WV6); test: Activation of STING-mediated immune response in STING knockout human THP-1 cells transfected with ISRE reporter assessed as increase in cGAMP-induced ISRE activation upto 50 uM preincubated with compound for 1 hrs followed by cGAMP addition and measured after 24 hrs by luciferase reporter gene assay; assay type: cell-based; conditions: time 25.0 hrs
[23] = test system: CT26; test: Antitumor activity against mouse CT26 cells implanted in BALB/c mouse assessed as tumor growth inhibition at 200 mg/kg, po administered for 2 weeks and measured on day 15 in the presence of anti-PD-L1 antibody relative to control; assay type: functional; conditions: CT26, 360 h, time 15 day, read-out: TGI

IC50 [1]: 0.068 µM
Tmax [2]: 1.67 h
Cmax [3]: 12700 ng/mL
AUC(0-inf) [4]: 79600 ng·h/mL
MRT last at 24 h [5]: 3.75 h
MRT inf [6]: 3.81 h
bioavailability [7]: 65.4%
half-life [8]: 3.61 h
Tmax [9]: 4.8 min
AUC(0-inf) [10]: 30900 ng·h/mL
Vd [11]: 0.51 L/kg
clearance [12]: 2.88 mL/min/kg
fraction unbound [13]: 0.09
half-life [14]: > 2 h
CLint scaled [15]: < 14.5 mL/min/kg
IC50 [16]: > 10 µM
IC50 [17]: > 10 µM
IC50 [18]: > 10 µM
IC50 [19]: > 10 µM
fold change (FC) [20]: 3.63
fold change (FC) [21]: < 30
Activity [22]: inactive
SMILES: Cn1nc(Cc2ccc(NS(N)(=O)=O)cc2)c2ccccc2c1=O
inhibition in vivo at 200 mg/kg [23]: 69%
